Results published in US8008333B2, “Single dose aromatase inhibitor for treating infertility” (Ares Trading S.A., priority 2001, dated 2011).
Structures can show the parent of a compound that is named as a salt. Where two headings read alike, the source gives them in different places.

Assays:
[1] = tested on: low responders during ovarian stimulation; assay: letrozole with FSH stimulation in low responders; assay type: in vivo, human
[2] = tested on: infertile patients (PCOS, unexplained infertility)
Text: HCG 10,000 IU was given to trigger ovulation. Follicular development was monitored by transvaginal ultrasound and hormonal assays of estrogen and LH.

women with PCOS = conditions: PCOS group, cited from earlier work
ovulatory women = conditions: ovulatory group, one patient; cited from earlier work
[3] = tested on: ovulatory women with unexplained infertility and anovulatory women with PCOS; assay: letrozole in conjunction with FSH for controlled ovarian super ovulation; assay type: in vivo, human
[4] = in vivo; cited from earlier work
[5] = tested on: endometrium of normal women; conditions: reduction in glandular density, increase in vacuolated cells; cited from earlier work

Structure (SMILES)	ovarian response to FSH stimulation [1]	Endometrial thickness on hCG day ([2]; Letrozole 5 days cycle)	Estradiol on hCG day ([2]; Letrozole 5 days cycle)	Estradiol/mature follicle ([2]; Letrozole 5 days cycle)	Follicles >1.5 cm ([2]; Letrozole 5 days cycle)	LH ([2]; Letrozole 5 days cycle)	Endometrial thickness on hCG day ([2]; Letrozole single-dose cycles)	Estradiol on hCG day ([2]; Letrozole single-dose cycles)	Estradiol/mature follicle ([2]; Letrozole single-dose cycles)	Follicles >1.5 cm ([2]; Letrozole single-dose cycles)	LH ([2]; Letrozole single-dose cycles)	ovulation ([2]; single 20 mg dose on day 3, out of the 9 single-dose treatment cycles) [cycles]	pregnancy achieved ([2]; single 20 mg dose on day 3, seven patients)	characteristics of the single dose treatment cycles versus the 5-day treatment cycles ([2]; single 20 mg dose vs […] for 5 days)	pregnancy (women with PCOS; 3 patients) [%]	ovulation (women with PCOS; 9 of 12 cycles) [%]	pregnancy (ovulatory women) [%]	FSH dose required for achievement of adequate ovarian super ovulation [3]	half-life [4]	effect on the endometrium [5]
N#Cc1ccc(C(c2ccc(C#N)cc2)n2cncn2)cc1 [letrozole]	improvement	0.9 (0.2) cm	919 (782) pmol/L	462 (257) pmol/L	1.9 (0.2)	18.2 (16.2) IU/L	0.9 (0.11) cm	831 (359) pmol/L	390 (74) pmol/L	2.29 (1.3)	19.1 (12.7) IU/L	8	one	no significant difference	25	75	10	significantly lower	around two	–
CCN(CC)CCOc1ccc(C(=C(Cl)c2ccccc2)c2ccccc2)cc1 [CC, clomiphene citrate]	–	–	–	–	–	–	–	–	–	–	–	–	–	–	–	–	–	–	–	deleterious effect on the endometrium
